# Data reported in patent publication US10588978B2, “Pharmaceutical composition containing imidazoline derivative” (priority 2016, dated 2020).
# Read-outs that look alike come from different tables or passages of the source.
# Key:
# AIPC [1] = conditions: human; cited from earlier work
# tumor cell growth = conditions: cited from earlier work
# AIPC [2] = conditions: mouse; cited from earlier work
# [3] = test system: five major subtypes of CYP450; conditions: all five subtypes; read-out: inhibition half lives on five major subtypes of CYP450; cited from earlier work
# [4] = same dose, same solvent; cited from earlier work
# AR [5] = biological target: T1, AR (Homo sapiens, UniProt P10275); conditions: cited from earlier work
# T1 sequence (P10275 1-920): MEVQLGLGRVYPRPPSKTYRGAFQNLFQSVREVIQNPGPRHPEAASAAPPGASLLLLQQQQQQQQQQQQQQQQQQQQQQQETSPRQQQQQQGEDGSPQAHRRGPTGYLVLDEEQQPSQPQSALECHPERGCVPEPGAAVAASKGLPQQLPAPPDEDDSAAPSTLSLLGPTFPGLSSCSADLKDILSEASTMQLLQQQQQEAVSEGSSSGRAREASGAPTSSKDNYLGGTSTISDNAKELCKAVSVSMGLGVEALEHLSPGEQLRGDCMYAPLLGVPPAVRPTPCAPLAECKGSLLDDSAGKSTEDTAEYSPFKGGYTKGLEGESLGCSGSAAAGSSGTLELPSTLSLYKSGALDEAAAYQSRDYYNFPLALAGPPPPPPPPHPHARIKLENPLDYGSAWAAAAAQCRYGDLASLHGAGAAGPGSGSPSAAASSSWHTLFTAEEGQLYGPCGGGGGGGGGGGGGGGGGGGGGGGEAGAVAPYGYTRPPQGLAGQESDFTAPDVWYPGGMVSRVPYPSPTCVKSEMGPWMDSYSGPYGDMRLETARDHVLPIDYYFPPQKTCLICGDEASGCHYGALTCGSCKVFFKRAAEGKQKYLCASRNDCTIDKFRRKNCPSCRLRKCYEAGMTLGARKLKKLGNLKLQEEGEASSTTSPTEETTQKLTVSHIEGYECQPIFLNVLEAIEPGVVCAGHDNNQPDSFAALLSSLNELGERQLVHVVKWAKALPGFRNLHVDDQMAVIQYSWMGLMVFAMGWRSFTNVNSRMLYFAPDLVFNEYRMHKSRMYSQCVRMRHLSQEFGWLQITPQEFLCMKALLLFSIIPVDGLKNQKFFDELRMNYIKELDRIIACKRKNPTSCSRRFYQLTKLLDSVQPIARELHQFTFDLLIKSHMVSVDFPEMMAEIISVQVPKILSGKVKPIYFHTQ
# [6] = Solubility of the compound in compositions with conventional auxiliaries; assay type: physicochemical
# [7] = Studies on stability of the compound; assay type: physicochemical
# [8] = same dose, same solvent; cited from earlier work; remark: listed apart in the source
# AR [9] = biological target: T1, AR; conditions: cited from earlier work; remark: listed apart in the source
# [10] = mice; relative to MDV-3100; cited from earlier work
Structure (SMILES),inhibition of growth of AIPC (AIPC [1]),effect of promoting tumor cell growth (tumor cell growth),inhibition of growth of AIPC (AIPC [2]),IC50 [3] [µM],in vivo exposure in rats relative to MDV-3100 [4],activity in vitro relative to MDV-3100 (AR [5]),solubility in compositions prepared with conventional auxiliaries [6],stability of the compound [7],in vivo exposure in dogs relative to MDV-3100 [8],AR agonist activity (AR [9]; at 3 μM),AR agonist activity (AR [9]; at 10 μM),ratio of the drug concentration in brain tissue to the drug concentration in plasma [10]
CNC(=O)c1ccc(N2C(=S)N(c3ccc(C#N)c(C(F)(F)F)c3)C(=O)C2(C)C)cc1F [MDV-3100],can inhibit the growth of AIPC,no effect of promoting tumor cell growth,can inhibit the growth of AIPC,,,,,,,,,
"CC1(C)C(=O)N(c2ccc(C#N)c(C(F)(F)F)c2)C(=S)N1c1ccc(OC[C@@H](O)CO)cc1 [compound of formula (I), (S)-4-(3-(4-(2,3-dihydroxypropoxy)phenyl)-4,4-dimethyl-5-carbonyl-2-thioimidazolin-1-yl)-2-(trifluoromethyl)benzonitrile]",,,,> 50,comparable to that of MDV-3100,slightly better than that of MDV-3100,poorly soluble,poor stability,more than six times that of MDV-3100,no AR agonist activity,no AR agonist activity,much lower than that of MDV-3100
